Assays:
A. fumigatus [1] = system: A. fumigatus; parameters: key: I = intermediate activity; S = susceptibility; R = Resistance; settings: A. fumigatus clinical strain; cited from earlier work
C. lusitaniae [2] = system: C. lusitaniae; parameters: key: I = intermediate activity; S = susceptibility; R = Resistance; settings: C. lusitaniae clinical strain; cited from earlier work
A. terreus [3] = system: A. terreus; parameters: key: I = intermediate activity; S = susceptibility; R = Resistance; settings: A. terreus clinical strain; cited from earlier work
S. cerevisiae [4] = system: S. cerevisiae; parameters: key: I = intermediate activity; S = susceptibility; R = Resistance; settings: S. cerevisiae clinical strain; cited from earlier work
C. Krusei = system: C. Krusei; parameters: key: I = intermediate activity; S = susceptibility; R = Resistance; settings: C. Krusei clinical strain; cited from earlier work
A. niger [5] = system: A. niger; parameters: key: I = intermediate activity; S = susceptibility; R = Resistance; settings: A. niger clinical strain; cited from earlier work
C. glabrata = system: C. glabrata; parameters: key: I = intermediate activity; S = susceptibility; R = Resistance; settings: C. glabrata clinical strain; cited from earlier work
C. tropicalis [6] = system: C. tropicalis; parameters: key: I = intermediate activity; S = susceptibility; R = Resistance; settings: C. tropicalis clinical strain; cited from earlier work
C. albicans [7] = system: C. albicans; parameters: key: I = intermediate activity; S = susceptibility; R = Resistance; settings: C. albicans clinical strain; cited from earlier work
C. guillermondii [8] = system: C. guillermondii; parameters: key: I = intermediate activity; S = susceptibility; R = Resistance; settings: C. guillermondii clinical strain; cited from earlier work
A. flavus [9] = system: A. flavus; parameters: key: I = intermediate activity; S = susceptibility; R = Resistance; settings: A. flavus clinical strain; cited from earlier work
C. parapsilosis [10] = system: C. parapsilosis; parameters: key: I = intermediate activity; S = susceptibility; R = Resistance; settings: C. parapsilosis clinical strain; cited from earlier work
S. epidermidis = assay: Kirby-Bauer disk diffusion susceptibility test; assay type: cell-based; settings: 300 μg
Protocol: (§1) Bacterial strains, from clinical origin, were supplied by the National Center for Microbiology, Institute of Health Carlos III (Majadahonda, Madrid). They are detailed in Table 1.
(§2) Bacterial cells suspension in sterile saline was prepared from a culture of 24-72 h, depending on bacterial species, in Mueller-Hinton Agar with 5% sheep blood. Each suspension was adjusted to a fixed size inoculum of 1-5×10^8 CFU/ml with a spectrophotometer (Ferraro, MJ National Committee for Clinical Laboratory Standards. 2000).
(§3) Kirby-Bauer disk diffusion susceptibility test protocol was utilized to determine the sensitivity or resistance of pathogenic bacteria against the compounds and others antibiotics. The absence of growth around the disks is an indirect measure of the ability of this compound to inhibit an organism (Kirby, W., et al., Antibiotics Annu. 1956-1957:892). After 18 to 72 hours of incubation at 37° C., with or without CO2, under aerobic or anaerobic conditions, depending on the bacterial species, halo of growth inhibition were obtained and evaluated.
(§4) Interpretation of susceptibility and resistance was based on the presence or absence of a zone of inhibition surrounding the disk. Kirby-Bauer disk diffusion susceptibility test is a common method which uses antibiotic-impregnated wafers to test whether bacteria are affected by antibiotics. The size of the zone of inhibition depends on how effective the antibiotic is at stopping the growth of the bacterium. A stronger antibiotic will create a larger zone, because a lower concentration of the antibiotic is enough to stop growth.
(§5) All compounds were tested at 300 μg/disc.

A. baumannii = assay: Kirby-Bauer disk diffusion susceptibility test; assay type: cell-based; settings: 300 μg
Protocol: as §1, §2, §3, §4, §5

P. aeruginosa = assay: Kirby-Bauer disk diffusion susceptibility test; assay type: cell-based; settings: 300 μg
Protocol: as §1, §2, §3, §4, §5

K. pneumoniae = assay: Kirby-Bauer disk diffusion susceptibility test; assay type: cell-based; settings: 300 μg
Protocol: as §1, §2, §3, §4, §5

S. pneumoniae = assay: Kirby-Bauer disk diffusion susceptibility test; assay type: cell-based; settings: 300 μg
Protocol: as §1, §2, §3, §4, §5

E. faecalis = assay: Kirby-Bauer disk diffusion susceptibility test; assay type: cell-based; settings: E. foecalis; 300 μg
Protocol: as §1, §2, §3, §4, §5

E. cloacae = assay: Kirby-Bauer disk diffusion susceptibility test; assay type: cell-based; settings: 300 μg
Protocol: as §1, §2, §3, §4, §5

E. coli = assay: Kirby-Bauer disk diffusion susceptibility test; assay type: cell-based; settings: 300 μg
Protocol: as §1, §2, §3, §4, §5

T. pulmonis = assay: Kirby-Bauer disk diffusion susceptibility test; assay type: cell-based; settings: 300 μg
Protocol: as §1, §2, §3, §4, §5

N. cyriacigeorgica = assay: Kirby-Bauer disk diffusion susceptibility test; assay type: cell-based; settings: 300 μg
Protocol: as §1, §2, §3, §4, §5

C. difficile = assay: Kirby-Bauer disk diffusion susceptibility test; assay type: cell-based; settings: 300 μg
Protocol: as §1, §2, §3, §4, §5

E. faecium = assay: Kirby-Bauer disk diffusion susceptibility test; assay type: cell-based; settings: 300 μg
Protocol: as §1, §2, §3, §4, §5

N. carnea = assay: Kirby-Bauer disk diffusion susceptibility test; assay type: cell-based; settings: 300 μg
Protocol: as §1, §2, §3, §4, §5

M. abscessus = assay: Kirby-Bauer disk diffusion susceptibility test; assay type: cell-based; settings: 300 μg
Protocol: as §1, §2, §3, §4, §5

C. guillermondii [11] = assay: Antifungal disk diffusion susceptibility test (CLSI M44); assay type: cell-based; settings: C. guillermondii; 10 μg control
Protocol: (§6) Filamentous fungi and yeasts strains, from clinical origin, were supplied by Microbiology Service from The Princess Hospital, Madrid. They are detailed in Table IX.
(§7) Filamentous fungi and yeast cells suspensions in distilled water was prepared from a culture of 24-48 h, depending on species, in Sabouraud agar. Each suspension was adjusted to a fixed size inoculum of 1-5×10^8 CFU/ml with a spectrophotometer (Ferraro, MJ National Committee for Clinical Laboratory Standards. 2000).
(§8) Antifungal susceptibility tests were developed following the standardized methodology detailed in document CLSI: M44-4: Method for Antifungal Disk diffusion susceptibility testing of yeasts consisting of disk diffusion on agar Muller-Hinton (supplemented with 2% glucose).

C. albicans [12] = assay: as above; assay type: cell-based; settings: Candida albicans; C. albicans; 10 μg control
Protocol: as §6, §7, §8

C. lusitaniae [13] = assay: as above; assay type: cell-based; settings: Clavispora lusitaniae; C. lusitaniae; 10 μg control
Protocol: as §6, §7, §8

C. parapsilosis [14] = assay: as above; assay type: cell-based; settings: Lodderomyces parapsilosis; C. parapsilosis; 10 μg control
Protocol: as §6, §7, §8

S. cerevisiae [15] = assay: as above; assay type: cell-based; settings: Saccharomyces cerevisiae; S. cerevisiae; 10 μg control
Protocol: as §6, §7, §8

A. flavus [16] = assay: as above; assay type: cell-based; settings: Aspergillus flavus; A. flavus; 10 μg control
Protocol: as §6, §7, §8

A. terreus [17] = assay: as above; assay type: cell-based; settings: Aspergillus terreus; A. terreus; 10 μg control
Protocol: as §6, §7, §8

C. tropicalis [18] = assay: as above; assay type: cell-based; settings: Candida tropicalis; C. tropicalis; 10 μg control
Protocol: as §6, §7, §8

A. niger [19] = assay: as above; assay type: cell-based; settings: Aspergillus niger; A. niger; 10 μg control
Protocol: as §6, §7, §8

A. fumigatus [20] = assay: as above; assay type: cell-based; settings: Aspergillus fumigatus; A. fumigatus; 10 μg control
Protocol: as §6, §7, §8

SMILES | Susceptibility of the strain (A. fumigatus [1]) | Susceptibility of the strain (C. lusitaniae [2]) | Susceptibility of the strain (A. terreus [3]) | Susceptibility of the strain (S. cerevisiae [4]) | Susceptibility of the strain (C. Krusei) | Susceptibility of the strain (A. niger [5]) | Susceptibility of the strain (C. glabrata) | Susceptibility of the strain (C. tropicalis [6]) | Susceptibility of the strain (C. albicans [7]) | Susceptibility of the strain (C. guillermondii [8]) | Susceptibility of the strain (A. flavus [9]) | Susceptibility of the strain (C. parapsilosis [10]) | further results
OC(Cn1cncn1)(Cn1cncn1)c1ccc(F)cc1F [Fluconazole] | R | S | R | S | S | R | S | S | S | R | R | S | –
C[C@@H]1[C@H](O)[C@@H](C)/C=C/C=C/C=C/C=C/C=C/C=C/C=C/[C@H](O[C@@H]2O[C@H](C)[C@@H](O)[C@H](N)[C@@H]2O)C[C@@H]2O[C@](O)(C[C@@H](O)C[C@@H](O)[C@H](O)CC[C@@H](O)C[C@@H](O)CC(=O)O[C@H]1C)C[C@H](O)[C@H]2C(=O)O [Amphotericin B] | S | I | I | I | I | S | S | S | I | R | I | S | –
NNC(=O)C(=O)NNc1ccc(OC(=O)c2ccccc2)cc1 [MSG-231] | – | – | – | – | – | – | – | – | – | – | – | – | Antibiotic activity (Table VIII, zone of inhibition) (S. epidermidis): 33 mm; Antibiotic activity (Table VIII, zone of inhibition) (A. baumannii): 20 mm; Antibiotic activity (Table VIII, zone of inhibition) (P. aeruginosa): 11 mm; Antibiotic activity (Table VIII, zone of inhibition) (K. pneumoniae): 10 mm; Antibiotic activity (Table VIII, zone of inhibition) (S. pneumoniae): 24 mm; Antibiotic activity (Table VIII, zone of inhibition) (E. faecalis): 29 mm; Antibiotic activity (Table VIII, zone of inhibition) (E. cloacae): 10 mm; Antibiotic activity (Table VIII, zone of inhibition) (E. coli): 17 mm; Antibiotic activity (Table VIII, zone of inhibition) (T. pulmonis): 27 mm; Antibiotic activity (Table VIII, zone of inhibition) (N. cyriacigeorgica): 33 mm; Antibiotic activity (Table VIII, zone of inhibition) (C. difficile): 24 mm; Antibiotic activity (Table VIII, zone of inhibition) (E. faecium): 27 mm; Antibiotic activity (Table VIII, zone of inhibition) (N. carnea): 38 mm; Antibiotic activity (Table VIII, zone of inhibition) (M. abscessus): 27 mm
Clc1ccccc1C(c1ccccc1)(c1ccccc1)n1ccnc1 [Clo, clotrimazol] | S | S | S | R | S | S | S | S | S | R | S | S | zone of inhibition at 10 µg/disc (C. guillermondii [11]): 44 mm; zone of inhibition at 10 µg/disc (C. albicans [12]): 15 mm; zone of inhibition at 10 µg/disc (C. lusitaniae [13]): 41 mm; zone of inhibition at 10 µg/disc (C. parapsilosis [14]): 42 mm; zone of inhibition at 10 µg/disc (S. cerevisiae [15]): 30 mm; zone of inhibition at 10 µg/disc (A. flavus [16]): 32 mm; zone of inhibition at 10 µg/disc (A. terreus [17]): 26 mm; zone of inhibition at 10 µg/disc (C. tropicalis [18]): 25 mm; zone of inhibition at 10 µg/disc (A. niger [19]): 25 mm; zone of inhibition at 10 µg/disc (A. fumigatus [20]): 22 mm
